# According to patent US6977262B2, “Dihydropyrazolopyridine compounds and pharmaceutical use thereof” (Mitsubishi Pharma Corporation, priority 2001, dated 2005):
row,Compound,melting point [°C]
1,"N#CC1=C(c2ccccc2)Nc2n[nH]cc2C1c1cccc2c1OCCC2 (stereo not shown) [Example 148, 5-Cyano-4-(3,4-dihydro-2H-benzopyran-8-yl)-4,7-dihydro-6-phenyl-2H-pyrazolo[3,4-b]pyridine]",255
2,"COc1ccccc1C1=C(C#N)C(c2ccccc2[N+](=O)[O-])c2c[nH]nc2N1 (stereo not shown) [Example 155, 5-Cyano-4,7-dihydro-6-(2-methoxyphenyl)-4-(2-nitrophenyl)-2H-pyrazolo[3,4-b]pyridine]",207
3,"COc1ccc(C2=C(C#N)C(c3ccccc3[N+](=O)[O-])c3c[nH]nc3N2)cc1 (stereo not shown) [Example 157, 5-Cyano-4,7-dihydro-6-(4-methoxyphenyl)-4-(2-nitrophenyl)-2H-pyrazolo[3,4-b]pyridine]",215
4,"N#CC1=C(c2ccccc2)Nc2n[nH]cc2C1c1cccc2nonc12 (stereo not shown) [Example 158, 4-(2,1,3-Benzoxadiazol-4-yl)-5-cyano-4,7-dihydro-6-phenyl-2H-pyrazolo[3,4-b]pyridine]",231
5,"COc1ccccc1C1=C(C#N)C(c2cccc3nonc23)c2c[nH]nc2N1 (stereo not shown) [Example 159, 4-(2,1,3-Benzoxadiazol-4-yl)-5-cyano-4,7-dihydro-6-(2-methoxyphenyl)-2H-pyrazolo[3,4-b]pyridine]",180
6,"COc1cccc(C2=C(C#N)C(c3cccc4nonc34)c3c[nH]nc3N2)c1 (stereo not shown) [Example 160, 4-(2,1,3-Benzoxadiazol-4-yl)-5-cyano-4,7-dihydro-6-(3-methoxyphenyl)-2H-pyrazolo[3,4-b]pyridine]",198
7,"COc1ccc(C2=C(C#N)C(c3cccc4nonc34)c3c[nH]nc3N2)cc1 (stereo not shown) [Example 161, 4-(2,1,3-Benzoxadiazol-4-yl)-5-cyano-4,7-dihydro-6-(4-methoxyphenyl)-2H-pyrazolo[3,4-b]pyridine]",244
8,"COc1ccccc1C1=C(C#N)C(c2cccc3nsnc23)c2c[nH]nc2N1 (stereo not shown) [Example 163, 4-(2,1,3-Benzothiadiazol-4-yl)-5-cyano-4,7-dihydro-6-(2-methoxyphenyl)-2H-pyrazolo[3,4-b]pyridine]",231
9,"COc1cccc(C2=C(C#N)C(c3cccc4nsnc34)c3c[nH]nc3N2)c1 (stereo not shown) [Example 164, 4-(2,1,3-Benzothiadiazol-4-yl)-5-cyano-4,7-dihydro-6-(3-methoxyphenyl)-2H-pyrazolo[3,4-b]pyridine]",220
10,"COc1ccc(C2=C(C#N)C(c3cccc4nsnc34)c3c[nH]nc3N2)cc1 (stereo not shown) [Example 165, 4-(2,1,3-Benzothiadiazol-4-yl)-5-cyano-4,7-dihydro-6-(4-methoxyphenyl)-2H-pyrazolo[3,4-b]pyridine]",238
11,"N#CC1=C(c2ccncc2)Nc2n[nH]cc2C1c1cccc2nonc12 (stereo not shown) [Example 166, 4-(2,1,3-Benzoxadiazol-4-yl)-5-cyano-4,7-dihydro-6-(pyridin-4-yl)-2H-pyrazolo[3,4-b]pyridine]",236
12,"N#CC1=C(c2ccco2)Nc2n[nH]cc2C1c1cccc2nonc12 (stereo not shown) [Example 170, 4-(2,1,3-Benzoxadiazol-4-yl)-5-cyano-6-(furan-2-yl)-4,7-dihydro-2H-pyrazolo[3,4-b]pyridine]",241
13,"N#CC1=C(c2cccs2)Nc2n[nH]cc2C1c1cccc2nonc12 (stereo not shown) [Example 171, 4-(2,1,3-Benzoxadiazol-4-yl)-5-cyano-4,7-dihydro-6-(thiophen-2-yl)-2H-pyrazolo[3,4-b]pyridine]",230
14,"N#CC1=C(c2ccc3ccccc3c2)Nc2n[nH]cc2C1c1cccc2nonc12 (stereo not shown) [Example 172, 4-(2,1,3-Benzoxadiazol-4-yl)-5-cyano-4,7-dihydro-6-(naphthalen-2-yl)-2H-pyrazolo[3,4-b]pyridine]",228
15,"N#CC1=C(c2ccco2)Nc2n[nH]cc2C1c1cccc2nonc12 (stereo not shown) [Example 173, 4-(2,1,3-Benzoxadiazol-4-yl)-5-cyano-6-(furan-2-yl)-4,7-dihydro-2H-pyrazolo[3,4-b]pyridine]",237
16,"N#CC1=C(c2ccsc2)Nc2n[nH]cc2C1c1cccc2nonc12 (stereo not shown) [Example 174, 4-(2,1,3-Benzoxadiazol-4-yl)-5-cyano-4,7-dihydro-6-(thiophen-3-yl)-2H-pyrazolo[3,4-b]pyridine]",242
17,"N#CC1=C(c2cc3ccccc3o2)Nc2n[nH]cc2C1c1cccc2nonc12 (stereo not shown) [Example 175, 6-(Benzo[b]furan-2-yl)-4-(2,1,3-benzoxadiazol-4-yl)-5-cyano-4,7-dihydro-2H-pyrazolo[3,4-b]pyridine]",> 270
18,"CC1=C(C#N)C(c2cccc3nonc23)c2c[nH]nc2N1 (stereo not shown) [Example 176, 4-(2,1,3-Benzoxadiazol-4-yl)-5-cyano-4,7-dihydro-6-methyl-2H-pyrazolo[3,4-b]pyridine]",212

# The remaining lines, values ahead:
row,melting point [°C],Compound
1,242,"CCCC1=C(C#N)C(c2cccc(Cl)c2Cl)c2c[nH]nc2N1 (stereo not shown) [Example 134, 5-Cyano-4-(2,3-dichlorophenyl)-4,7-dihydro-6-propyl-2H-pyrazolo[3,4-b]pyridine]"
2,263,"CCCC1=C(C#N)C(c2cccc3ccccc23)c2c[nH]nc2N1 (stereo not shown) [Example 135, 5-Cyano-4,7-dihydro-4-(naphthalen-1-yl)-6-propyl-2H-pyrazolo[3,4-b]pyridine]"
3,230,"CCCC1=C(C#N)C(c2cccc3c2OCCC3)c2c[nH]nc2N1 (stereo not shown) [Example 136, 5-Cyano-4-(3,4-dihydro-2H-benzopyran-8-yl)-4,7-dihydro-6-propyl-2H-pyrazolo[3,4-b]pyridine]"
4,194,"CCCC1=C(C#N)C(c2cccc3nonc23)c2c[nH]nc2N1 (stereo not shown) [Example 137, 4-(2,1,3-Benzoxadiazol-4-yl)-5-cyano-4,7-dihydro-6-propyl-2H-pyrazolo[3,4-b]pyridine]"
5,195,"CCCC1=C(C#N)C(c2cccc3nsnc23)c2c[nH]nc2N1 (stereo not shown) [Example 138, 4-(2,1,3-Benzothiadiazol-4-yl)-5-cyano-4,7-dihydro-6-propyl-2H-pyrazolo[3,4-b]pyridine]"
6,208,"CCCC1=C(C#N)C(c2cccc3oc(C)nc23)c2c[nH]nc2N1 (stereo not shown) [Example 139, 5-Cyano-4,7-dihydro-4-(2-methylbenzoxazol-4-yl)-6-propyl-2H-pyrazolo[3,4-b]pyridine]"
7,170,"CCCC1=C(C#N)[C@H](c2cccc3nonc23)c2c[nH]nc2N1 [Example 140, R(−) 4-(2,1,3-Benzoxadiazol-4-yl)-5-cyano-4,7-dihydro-6-propyl-2H-pyrazolo[3,4-b]pyridine]"
8,158,"N#CC1=C(c2ccccc2)Nc2n[nH]cc2C1c1ccccc1Cl (stereo not shown) [Example 142, 4-(2-Chlorophenyl)-5-cyano-4,7-dihydro-6-phenyl-2H-pyrazolo[3,4-b]pyridine]"
9,146,"CSc1ccccc1C1C(C#N)=C(c2ccccc2)Nc2n[nH]cc21 (stereo not shown) [Example 143, 5-Cyano-4,7-dihydro-4-(2-methylthiophenyl)-6-phenyl-2H-pyrazolo[3,4-b]pyridine]"
10,148,"N#CC1=C(c2ccccc2)Nc2n[nH]cc2C1c1ccccc1C#N (stereo not shown) [Example 144, 5-Cyano-4-(2-cyanophenyl)-4,7-dihydro-6-phenyl-2H-pyrazolo[3,4-b]pyridine]"
11,162,"N#CC1=C(c2ccccc2)Nc2n[nH]cc2C1c1cccc(Cl)c1Cl (stereo not shown) [Example 145, 5-Cyano-4-(2,3-dichlorophenyl)-4,7-dihydro-6-phenyl-2H-pyrazolo[3,4-b]pyridine]"
12,174,"N#CC1=C(c2ccccc2)Nc2n[nH]cc2C1c1cccc2ccccc12 (stereo not shown) [Example 146, 5-Cyano-4,7-dihydro-4-(naphthalen-1-yl)-6-phenyl-2H-pyrazolo[3,4-b]pyridine]"
13,> 270,"N#CC1=C(c2ccccc2)Nc2n[nH]cc2C1c1cccc(C#N)c1Br (stereo not shown) [Example 147, 4-(2-Bromo-3-cyanophenyl)-5-cyano-4,7-dihydro-6-phenyl-2H-pyrazolo[3,4-b]pyridine]"
14,165,"N#CC1=C(c2ccccc2)Nc2n[nH]cc2C1c1cccc(F)c1F (stereo not shown) [Example 149, 5-Cyano-4-(2,3-difluorophenyl)-4,7-dihydro-6-phenyl-2H-pyrazolo[3,4-b]pyridine]"
15,206,"COc1ccccc1C1C(C#N)=C(c2ccccc2)Nc2n[nH]cc21 (stereo not shown) [Example 150, 5-Cyano-4,7-dihydro-4-(2-methoxyphenyl)-6-phenyl-2H-pyrazolo[3,4-b]pyridine]"
16,220,"COc1ccccc1C1=C(C#N)C(c2ccccc2OC)c2c[nH]nc2N1 (stereo not shown) [Example 151, 5-Cyano-4,7-dihydro-4,6-bis-(2-methoxyphenyl)-2H-pyrazolo[3,4-b]pyridine]"
17,192,"COc1cccc(C2=C(C#N)C(c3ccccc3OC)c3c[nH]nc3N2)c1 (stereo not shown) [Example 152, 5-Cyano-4,7-dihydro-4-(2-methoxyphenyl)-6-(3-methoxyphenyl)-2H-pyrazolo[3,4-b]pyridine]"
18,149,"COc1ccc(C2=C(C#N)C(c3ccccc3OC)c3c[nH]nc3N2)cc1 (stereo not shown) [Example 153, 5-Cyano-4,7-dihydro-4-(2-methoxyphenyl)-6-(4-methoxyphenyl)-2H-pyrazolo[3,4-b]pyridine]"
19,221,"N#CC1=C(c2ccccc2)Nc2n[nH]cc2C1c1ccccc1[N+](=O)[O-] (stereo not shown) [Example 154, 5-Cyano-4,7-dihydro-4-(2-nitrophenyl)-6-phenyl-2H-pyrazolo[3,4-b]pyridine]"
20,220,"COc1cccc(C2=C(C#N)C(c3ccccc3[N+](=O)[O-])c3c[nH]nc3N2)c1 (stereo not shown) [Example 156, 5-Cyano-4,7-dihydro-6-(3-methoxyphenyl)-4-(2-nitrophenyl)-2H-pyrazolo[3,4-b]pyridine]"
21,258,"N#CC1=C(c2ccccc2)Nc2n[nH]cc2C1c1cccc2nsnc12 (stereo not shown) [Example 162, 4-(2,1,3-Benzothiadiazol-4-yl)-5-cyano-4,7-dihydro-6-phenyl-2H-pyrazolo[3,4-b]pyridine]"
22,213,"N#CC1=C(c2cccc3ccccc23)Nc2n[nH]cc2C1c1cccc2nonc12 (stereo not shown) [Example 169, 4-(2,1,3-Benzoxadiazol-4-yl)-5-cyano-4,7-dihydro-6-(naphthalen-1-yl)-2H-pyrazolo[3,4-b]pyridine]"
